Laboratory results reported in patent publication US12564636B2, “Pnictogen-containing heterocyclic compounds and their use” (University of Rhode Island Board of Trustees, priority 2022, dated 2026).

How the values were obtained:
Type in all cases: physicochemical
[1] = Reaction of CAP compound with water (hydrolysis rate, stability in water)
Protocol: (§1) In a typical experiment, an aliquot of the stock solution of CAP1-a in water was added to nucleophile in PIPES buffer or water. The progress of the reaction was monitored by UV-Vis spectrometer at suitable wavelength. The pseudo first order reaction rate constant was determined by plotting the ln value of the concentration of CAP1-a against the reaction time. The pseudo first order reaction rate constant thus obtained was plotted against the concentration of the nucleophile. The slope of this linear correlation is the second order reaction rate constant. CAP1-a was reacted separately with GSH, cysteine, N-acetylcysteine, and phenol.
On the other hand, the reaction between CAP4 and water is very slow, showing a k2 of only 4.8−10^−6 M^−1·S^−1 at 25° C. and pH 7 in 50 mM PIPES.

[2] = Second order reaction rate constant of CAP compound with cysteine (UV-Vis kinetics); settings: similar reaction conditions (25° C., pH 7, 50 mM PIPES)
Protocol: as §1

[3] = Second order reaction rate constant of CAP compound with GSH (UV-Vis kinetics)
Protocol: as §1
Following the study above, compounds CAP1-F, CAP2, and CAP4 each were reacted with either GSH or phenol in water or 50 mM PIPES at pH 7.
In another study, compounds CAP1-b, CAP1-F, CAP2, CAP3, CAP4, and CAP5 each were reacted with either GSH in a 50 mM PIPES and 150 mM KCl aqueous solution at pH 7 and 25° C. […] The reaction between CAP5 and GSH has a k2 as high as 3.2×10^5 M^−1·S^−1, 7×10^9 folds faster than its reaction with water under the same conditions. […] S^−1.

[4] = Stability in D2O observed by 1H NMR; settings: r.t.
From the text: 1H NMR (400 MHz, D2O) δ 8.08−7.98 (m, 2H), δ 7.92−7.85 (m, 2H), 4.41 (s, 6H), 3.75 (s, 3H).

[5] = 50 mM PIPES and 150 mM KCl aqueous solution, pH 7, 25° C.

C[n+]1ccccc1F.[I-] [CAP1-a, N-methyl-2-fluoropyridinium iodide]
second order reaction rate constant (k2), reaction with water ([1]; CAP1-a and water): 4.5×10^−6 M^−1 S^−1 | stability in water (in words) ([1]; inferred from slow reaction with water): high stability | second order reaction rate constant (k2), reaction with cysteine [2]: 2.8×10^2 M^−1·S^−1 | second order reaction rate constant (k2), reaction with GSH ([3]; 25° C., pH 7, 50 mM PIPES): 1.2×10^2 M^−1·S^−1

C[n+]1ccccc1F [CAP1-b, N-methyl-2-fluoropyridinium tetrafluoroborate]
second order reaction rate constant (k2), reaction with GSH [3, 5]: 1.2×10^2 M^−1·S^−1

C[n+]1ccc(S(C)(=O)=O)cc1 [CAP3, N-Methyl-4-(methylsulfonyl)pyridinium tetrafluoroborate]
second order reaction rate constant (k2), reaction with GSH [3, 5]: 9.8×10^3 M^−1·S^−1

C[n+]1ccccc1S(C)(=O)=O [CAP4, N-methyl-2-(methylsulfonyl)pyridinium tetrafluoroborate]
second order reaction rate constant (k2), reaction with GSH [3, 5]: 1.2×10^5 M^−1·S^−1 | second order reaction rate constant (k2), reaction with GSH ([3]; 25° C., pH 7, 50 mM PIPES): 5.3×10^4 M^−1·S^−1

C[n+]1c(Cl)cccc1S(C)(=O)=O [CAP5, 2-Chloro-1-methyl-6-(methylsulfonyl)pyridin-1-ium tetrafluoroborate]
second order reaction rate constant (k2), reaction with GSH [3, 5]: 3.2×10^5 M^−1·S^−1

Cn1c(S(C)(=O)=O)[n+](C)c2ccccc21 [CAP23, 1,3-dimethyl-2-(methylsulfonyl)-1H-benzo[d]imidazol-3-ium tetrafluoroborate]
stability in D2O [4]: moderate stability | time after which the compound is completely hydrolyzed in D2O [4]: 12 h
